Reference: PubChem BioAssay AID248 (DTP/NCI, 2004)
“And” between values parts separate entries of the source, which are not always exact repeats. Equal entries are not always repeated. Inconclusive results and toxic doses are left out.

System: L1210 leukemia ip in BDF1 mice, survival T/C
Test: NCI In Vivo Anticancer Drug Screen. Data for tumor model L1210 Leukemia (intraperitoneal) in B6D2F1 (BDF1) mice
Conditions: endpoint: mean survival time, higher = longer survival
Method in brief: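 Read-out is survival time, reported as the treated-group measurement over the vehicle-control measurement.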

[1] = dose: 50.0 mg/kg/injection, schedule: Q01DX009 (ip), vehicle: saline
[2] = dose: 100.0 mg/kg/injection, schedule: Q01DX009 (ip), vehicle: saline
[3] = dose: 100.0 mg/kg/injection, schedule: Q01DX009 (ip), vehicle: saline with Tween-80
[4] = dose: 100.0 mg/kg/injection, schedule: Q04DX003 (ip), vehicle: saline with Tween-80
[5] = dose: 200.0 mg/kg/injection, schedule: Q01DX009 (ip), vehicle: saline with Tween-80
[6] = dose: 200.0 mg/kg/injection, schedule: Q04DX003 (ip), vehicle: saline with Tween-80
[7] = dose: 400.0 mg/kg/injection, schedule: Q01DX009 (ip), vehicle: saline with Tween-80
[8] = dose: 400.0 mg/kg/injection, schedule: Q04DX003 (ip), vehicle: saline with Tween-80
[9] = dose: 100.0 mg/kg/injection, schedule: Q04DX003 (ip), vehicle: Klucel (hydroxypropylcellulose) (HPC)
[10] = dose: 100.0 mg/kg/injection, schedule: Q01DX001 (ip), vehicle: saline
[11] = dose: 200.0 mg/kg/injection, schedule: Q01DX001 (ip), vehicle: saline
[12] = dose: 400.0 mg/kg/injection, schedule: Q01DX001 (ip), vehicle: saline
[13] = dose: 100.0 mg/kg/injection, schedule: Q01DX001 (ip), vehicle: carboxymethylcellulose (CMC)
[14] = dose: 200.0 mg/kg/injection, schedule: Q01DX001 (ip), vehicle: carboxymethylcellulose (CMC)
[15] = dose: 400.0 mg/kg/injection, schedule: Q01DX001 (ip), vehicle: carboxymethylcellulose (CMC)
[16] = dose: 25.0 mg/kg/injection, schedule: Q01DX009 (ip), vehicle: saline

With `NCCO[Si](OCCN)(OCCN)OCCN` the T/C [1] was 93 % of control and the T/C [2] was 88 % of control.
With `BrC1CCCCCCC1Br` (configuration not stated) the T/C (dose: 25.0 mg/kg/injection, schedule: Q04DX003 (ip), vehicle: saline) was 102 % of control, the T/C (dose: 50.0 mg/kg/injection, schedule: Q04DX003 (ip), vehicle: saline) was 96 % of control and the T/C (dose: 100.0 mg/kg/injection, schedule: Q04DX003 (ip), vehicle: saline) was 91 % of control.
In the case of `CCC(=O)c1ccc(OC(=O)Nc2ccc(Cl)cc2[N+](=O)[O-])cc1`, the T/C [3] is reported as 100 % of control and 92 % of control, the T/C (dose: 100.0 mg/kg/injection, schedule: Q04DX002 (ip), vehicle: saline with Tween-80) is reported as 97 % of control and 113 % of control and the T/C [4] is reported as 102 % of control. For the same compound, the T/C [5] was 96 % of control and 103 % of control, the T/C (dose: 200.0 mg/kg/injection, schedule: Q04DX002 (ip), vehicle: saline with Tween-80) was 97 % of control and 91 % of control and the T/C [6] was 95 % of control. For the same compound, the T/C [7] was 92 % of control, the T/C (dose: 400.0 mg/kg/injection, schedule: Q04DX002 (ip), vehicle: saline with Tween-80) was 95 % of control and 92 % of control and the T/C [8] was 97 % of control.
With `N#CCCCOc1ccc(Cl)cc1` the T/C (dose: 25.0 mg/kg/injection, schedule: Q04DX003 (ip), vehicle: Klucel (hydroxypropylcellulose) (HPC)) was 104 % of control, the T/C (dose: 50.0 mg/kg/injection, schedule: Q04DX003 (ip), vehicle: Klucel (hydroxypropylcellulose) (HPC)) was 104 % of control and the T/C [9] was 98 % of control.
In the case of `CN(C)N=C(Cc1ccccc1)Cc1ccccc1`, the T/C (dose: 50.0 mg/kg/injection, schedule: Q01DX009 (ip), vehicle: saline with Tween-80) is reported as 97 % of control, the T/C [3] is reported as 103 % of control and the T/C [4] is reported as 103 % of control. For the same compound, the T/C [6] was 106 % of control.
`O=S(=O)(c1ccccc1)C1CC1(c1ccccc1)c1ccccc1` (configuration not stated) was tested, and the T/C [10] was 92 % of control, the T/C [11] was 93 % of control and the T/C [12] was 90 % of control.
In the case of `O=c1sc2ccccc2n1CCSCCn1c(=S)sc2ccccc21`, the T/C [10] is reported as 90 % of control and the T/C [12] is reported as 93 % of control.
In the case of `CC(=O)OCc1ccnc2ccc(OC(C)=O)cc12`, the T/C [10] is reported as 100 % of control, the T/C [11] is reported as 98 % of control and the T/C [12] is reported as 96 % of control.
In the case of `NC12CCCCC1(O)CCCC2` (configuration not stated), the T/C (dose: 75.0 mg/kg/injection, schedule: Q01DX001 (ip), vehicle: saline) is reported as 101 % of control, the T/C (dose: 150.0 mg/kg/injection, schedule: Q01DX001 (ip), vehicle: saline) is reported as 101 % of control and the T/C (dose: 300.0 mg/kg/injection, schedule: Q01DX001 (ip), vehicle: saline) is reported as 95 % of control.
`CCCCOc1ccc(/C=N/NC(=O)CNC(=O)Nc2cccc(C(F)(F)F)c2)cc1` was tested, and the T/C (dose: 100.0 mg/kg/injection, schedule: Q01DX009 (ip), vehicle: gum acacia) was 86 % of control, the T/C (dose: 200.0 mg/kg/injection, schedule: Q01DX009 (ip), vehicle: gum acacia) was 93 % of control and the T/C (dose: 400.0 mg/kg/injection, schedule: Q01DX009 (ip), vehicle: gum acacia) was 96 % of control.
`NC(Cc1ccccc1)C(=O)NCCCCCCCCCCNC(=O)C(N)Cc1ccccc1` (configuration not stated) was tested, and the T/C (dose: 50.0 mg/kg/injection, schedule: Q01DX001 (ip), vehicle: saline) was 98 % of control, the T/C [10] was 104 % of control and the T/C [11] was 103 % of control.
With `C/C(=N/N(C)C)c1cccs1` the T/C (dose: 4.0 mg/kg/injection, schedule: Q04DX003 (sc), vehicle: olive oil, sesame oil, peanut oil) was 89 % of control, the T/C (dose: 6.0 mg/kg/injection, schedule: Q04DX003 (sc), vehicle: olive oil, sesame oil, peanut oil) was 103 % of control and the T/C (dose: 9.0 mg/kg/injection, schedule: Q04DX003 (sc), vehicle: olive oil, sesame oil, peanut oil) was 99 % of control. For the same compound, the T/C (dose: 12.5 mg/kg/injection, schedule: Q04DX003 (sc), vehicle: olive oil, sesame oil, peanut oil) was 102 % of control, the T/C (dose: 14.0 mg/kg/injection, schedule: Q04DX003 (sc), vehicle: olive oil, sesame oil, peanut oil) was 97 % of control and the T/C (dose: 22.0 mg/kg/injection, schedule: Q04DX003 (sc), vehicle: olive oil, sesame oil, peanut oil) was 120 % of control. The T/C (dose: 33.0 mg/kg/injection, schedule: Q04DX003 (sc), vehicle: olive oil, sesame oil, peanut oil) was 124 % of control and the T/C (dose: 50.0 mg/kg/injection, schedule: Q04DX003 (sc), vehicle: olive oil, sesame oil, peanut oil) was 98 % of control.
With `CC(=O)COc1cccc(Cl)c1` the T/C [9] was 104 % of control, the T/C (dose: 200.0 mg/kg/injection, schedule: Q04DX003 (ip), vehicle: Klucel (hydroxypropylcellulose) (HPC)) was 98 % of control and the T/C (dose: 400.0 mg/kg/injection, schedule: Q04DX003 (ip), vehicle: Klucel (hydroxypropylcellulose) (HPC)) was 97 % of control.
With `O=[N+]([O-])c1cc(N(c2ccccc2)c2ccccc2)ccc1Cl` the T/C [13] was 97 % of control, the T/C [14] was 97 % of control and the T/C [15] was 95 % of control.
`Nc1cc2c(cc1Cl)-c1ccc([N+](=O)[O-])cc1/C2=N\O` was tested, and the T/C [13] was 104 % of control, the T/C [14] was 116 % of control and the T/C [15] was 104 % of control.
In the case of `O=C(O)C(CSC(c1ccccc1)(c1ccccc1)c1ccccc1)N=Cc1cccs1` (configuration not stated), the T/C (dose: 22.0 mg/kg/injection, schedule: Q01DX009 (ip), vehicle: saline) is reported as 123 % of control, the T/C (dose: 66.0 mg/kg/injection, schedule: Q01DX009 (ip), vehicle: saline with Tween-80) is reported as 109 % of control and the T/C (dose: 66.0 mg/kg/injection, schedule: Q01DX009 (ip), vehicle: saline) is reported as 152 % of control and 214 % of control. For the same compound, the T/C (dose: 150.0 mg/kg/injection, schedule: Q01DX009 (ip), vehicle: saline with Tween-80) was 98 % of control and the T/C (dose: 150.0 mg/kg/injection, schedule: Q01DX009 (ip), vehicle: saline) was 104 % of control.
In the case of `NC1=NC(=S)CS1`, the T/C (dose: 75.0 mg/kg/injection, schedule: Q04DX003 (ip), vehicle: saline) is reported as 97 % of control, the T/C (dose: 150.0 mg/kg/injection, schedule: Q04DX003 (ip), vehicle: saline) is reported as 94 % of control and the T/C (dose: 300.0 mg/kg/injection, schedule: Q04DX003 (ip), vehicle: saline) is reported as 92 % of control.
For `CNC(=O)Oc1ccccc1CCl`, the T/C (dose: 50.0 mg/kg/injection, schedule: Q01DX001 (ip), vehicle: Klucel (hydroxypropylcellulose) (HPC)) was 97 % of control, the T/C (dose: 100.0 mg/kg/injection, schedule: Q01DX001 (ip), vehicle: Klucel (hydroxypropylcellulose) (HPC)) was 97 % of control and the T/C (dose: 200.0 mg/kg/injection, schedule: Q01DX001 (ip), vehicle: Klucel (hydroxypropylcellulose) (HPC)) was 92 % of control.
`COC(=O)CNC(=O)C(Cc1ccc(OCc2ccccc2)cc1)NC=O` (configuration not stated) was tested, and the T/C [3] was 89 % of control, the T/C [4] was 105 % of control and the T/C [5] was 90 % of control. For the same compound, the T/C [6] was 100 % of control, the T/C [7] was 90 % of control and the T/C [8] was 102 % of control.
For `CN(C)S(=O)(=O)c1ccc(CCCCCCc2ccc(S(=O)(=O)N(C)C)cc2)cc1`, the T/C [13] was 96 % of control, the T/C [14] was 102 % of control and the T/C [15] was 91 % of control.
For `CCC(=O)O[C@H]1CC[C@H]2[C@@H]3CCC4=CC(=O)CC[C@]4(C)[C@H]3CC[C@]12C`, the T/C (dose: 125.0 mg/kg/injection, schedule: Q01DX Z (sc), vehicle: steriod suspending solution) was 101 % of control and 106 % of control, the T/C (dose: 250.0 mg/kg/injection, schedule: Q01DX Z (sc), vehicle: steriod suspending solution) was 97 % of control and 112 % of control and the T/C (dose: 500.0 mg/kg/injection, schedule: Q01DX Z (sc), vehicle: steriod suspending solution) was 101 % of control and 103 % of control. The T/C (dose: 500.0 mg/kg/injection, schedule: Q01DX Z (sc), vehicle: water) was 95 % of control, the T/C (dose: 1000.0 mg/kg/injection, schedule: Q01DX Z (sc), vehicle: steriod suspending solution) was 100 % of control and the T/C (dose: 1000.0 mg/kg/injection, schedule: Q01DX Z (sc), vehicle: water) was 97 % of control.
For `Nc1nc(=S)nc(N)[nH]1`, the T/C [16] was 101 % of control, the T/C [1] was 103 % of control and the T/C [2] was 97 % of control.
In the case of `COC1C(O)C(CO)OC1n1ccc(N)nc1=O` (configuration not stated), the T/C [10] is reported as 95 % of control, the T/C [11] is reported as 95 % of control and the T/C [12] is reported as 98 % of control.
In the case of `CCCCN=C(NCCCC)OC1CCCCC1`, the T/C (dose: 11.1 mg/kg/injection, schedule: Q01DX Z (ip), vehicle: saline) is reported as 98 % of control, the T/C (dose: 16.6 mg/kg/injection, schedule: Q01DX Z (ip), vehicle: saline) is reported as 100 % of control and the T/C (dose: 25.0 mg/kg/injection, schedule: Q01DX Z (ip), vehicle: saline) is reported as 102 % of control.
In the case of `O=C(O)c1ccccc1N=Cc1ccccc1O.[Co]`, the T/C (dose: 100.0 mg/kg/injection, schedule: Q01DX001 (ip), vehicle: other) is reported as 102 % of control and the T/C (dose: 200.0 mg/kg/injection, schedule: Q01DX001 (ip), vehicle: other) is reported as 112 % of control.
With `CCC1CN2CCc3cc(OC)c(OC)cc3C2CC1O` (configuration not stated) the T/C [3] was 97 % of control and the T/C [5] was 110 % of control.
With `C#CC[N+](CC#C)(CC#C)CC#C` the T/C [16] was 96 % of control, the T/C [1] was 102 % of control and the T/C [2] was 104 % of control.
